Patent publication US10654845B2, “2-(het)aryl-substituted fused bicyclic heterocycle derivatives as pesticides” (BAYER CROPSCIENCE AKTIENGESELLSCHAFT, priority 2015, dated 2020)

Columns and labels:
[1] = log P by HPLC on reversed-phase column (C18), EEC Directive 79/831 Annex V.A8; conditions: for chromatographic logP: reversed-phase HPLC column (C18)
Text: Called log P (HCOOH) in the table.
Called log P (neutral) in the table.

Musca domestica = Musca domestica test; assay type: in vivo; conditions: 100 ppm, after 2 days, adult houseflies
Description: (§1) Solvent: dimethyl sulphoxide
(§2) To produce a suitable preparation of active compound, 10 mg of active compound are mixed with 0.5 ml of dimethyl sulphoxide, and the concentrate is diluted with water to the desired concentration.
Vessels containing a sponge treated with sugar solution and the active compound preparation of the desired concentration are populated with 10 adult houseflies (Musca domestica).
After 2 days, the kill in % is determined. 100% means that all of the flies have been killed; 0% means that none of the flies have been killed.

Phaedon cochleariae = Phaedon cochleariae spray test; assay type: in vivo; conditions: 500 g/ha, after 7 days, beetle larvae killed; for pest or weed control at 500 g/ha: Phaedon cochleariae, 168 h, read-out: efficacy in %
Description: Phaedon cochleariae-Spray Test
(§3) Solvent: 78.0 parts by weight of acetone
(§4) • 1.5 parts by weight of dimethylformamide Emulsifier: alkylaryl polyglycol ether
(§5) To produce a suitable preparation of active compound, 1 part by weight of active compound is dissolved using the stated parts by weight of solvent and made up with water containing an emulsifier concentration of 1000 ppm until the desired concentration is attained. To produce further test concentrations, the preparation is diluted with emulsifier-containing water.
After 7 days, the efficacy in % is determined. 100% means that all the beetle larvae have been killed; 0% means that no beetle larvae have been killed.

Myzus persicae [2] = assay: Myzus persicae spray test (Chinese cabbage leaf discs); assay type: in vivo; conditions: 500 g/ha, after 6 days, aphids killed
Description: (§6) Myzus persicae Spray Test
Solvent: 78 parts by weight of acetone
as §4, §5
Discs of Chinese cabbage leaves (Brassica pekinensis) infested by all stages of the green peach aphid (Myzus persicae) are sprayed with an active compound preparation of the desired concentration.
After 6 days, the efficacy in % is determined. 100% means that all the aphids have been killed; 0% means that no aphids have been killed.

Lucilia cuprina = Lucilia cuprina test; assay type: in vivo; conditions: 100 ppm, after 2 days, L1 larvae
Description: as §1, §2
About 20 L1 larvae of the Australian sheep blowfly (Lucilia cuprina) are transferred into a test vessel containing minced horsemeat and the active compound preparation of the desired concentration.
After 2 days, the kill in % is determined. 100% means that all the larvae have been killed; 0% means that no larvae have been killed.

Ctenocephalides felis = Ctenocephalides felis oral test; assay type: in vivo; conditions: 100 ppm, after 2 days
Description: Ctenocephalides felis-Oral Test
as §1
To produce a suitable preparation of active compound, 10 mg of active compound are mixed with 0.5 ml of dimethyl sulphoxide. Dilution with citrated cattle blood gives the desired concentration.
About 20 unfed adult cat fleas (Ctenocephalides felis) are placed into a chamber which is closed at the top and bottom with gauze. A metal cylinder whose bottom end is closed with parafilm is placed onto the chamber. The cylinder contains the blood/active compound preparation, which can be imbibed by the fleas through the parafilm membrane.
After 2 days, the kill in % is determined. 100% means that all of the fleas have been killed; 0% means that none of the fleas have been killed.

Meloidogyne incognita = Meloidogyne incognita test; assay type: in vivo; conditions: 20 ppm, after 14 days, formation of galls
Description: Meloidogyne incognita-Test
Solvent: 125.0 parts by weight of acetone
To produce a suitable preparation of active compound, 1 part by weight of active compound is mixed with the stated amount of solvent and the concentrate is diluted with water to the desired concentration.
Vessels are filled with sand, active compound solution, an egg/larvae suspension of the southern root-knot nematode (Meloidogyne incognita) and lettuce seeds. The lettuce seeds germinate and the plants develop. The galls develop on the roots.
After 14 days, the nematicidal efficacy in % is determined by the formation of galls. 100% means that no galls were found; 0% means that the number of galls on the treated plants corresponds to the untreated control.

Spodoptera frugiperda = Spodoptera frugiperda spray test; assay type: in vivo; conditions: 500 g/ha, after 7 days, caterpillars killed
Description: Spodoptera frugiperda-Spray Test Solvent: 78.0 parts by weight of acetone • • 1.5 parts by weight of dimethylformamide Emulsifier: alkylaryl polyglycol ether […] To produce further test concentrations, the preparation is diluted with emulsifier-containing water. Leaf disks of maize (Zea mays) are sprayed with an active compound preparation of the desired concentration and, after drying, populated with caterpillars of the armyworm (Spodoptera frugiperda).

Tetranychus urticae = Tetranychus urticae spray test, OP-resistant; assay type: in vivo; conditions: 500 g/ha, after 6 days, spider mites killed
Description: Tetranychus urticae-Spray Test, OP-Resistant
as §3, §4, §5
Discs of bean leaves (Phaseolus vulgaris) infested with all stages of the greenhouse red spider mite (Tetranychus urticae) are sprayed with an active compound preparation of the desired concentration.
After 6 days, the efficacy in % is determined. 100% means that all the spider mites have been killed; 0% means that no spider mites have been killed.

Myzus persicae [3] = assay: Myzus persicae spray test (bell pepper plants); assay type: in vivo; conditions: 100 ppm, after 6 days
Description: as §6
Solvent: 7 parts by weight of dimethylformamide
Emulsifier: alkylaryl polyglycol ether
as §5, with “water. If the addition of ammonium salts or/and penetrants is required, these are each added in a concentration of 1000 ppm to the formulation solution.” for “water.”
Bell pepper plants (Capsicum annuum) severely infested with the green peach aphid (Myzus persicae) are treated by spraying with the active compound preparation in the desired concentration.
After 6 days, the kill in % is determined. 100% means that all of the aphids have been killed; 0% means that none of the aphids have been killed.

[4] = LC-MS acidic range, pH 2.7 (HCOOH), C18, 55° C.
[5] = LC-MS neutral range, pH 7.8, C18, 55° C.
[6] = pH 2.7, logP-acidic, LC-MS acidic range, pH 2.7 (HCOOH), C18, 55° C.
[7] = pH 7.8, log P (neutral), preparation examples, neutral range, pH 7.8
[8] = pH 7.8, logP-neutral, LC-MS neutral range, pH 7.8, C18, 55° C.

SMILES	logP-acidic ([1]; pH 2.7)	logP-neutral ([1]; pH 7.8)	efficacy in % (Phaedon cochleariae) [%]	efficacy in % (Myzus persicae [2]) [%]	nematicidal efficacy in % (Meloidogyne incognita) [%]	efficacy in % (Spodoptera frugiperda) [%]	further results
CCS(=O)(=O)c1ccc(NC(=O)C(F)(F)C(F)F)nc1-c1nc2cc(C(F)(F)F)ncc2n1C [Example 8]	2.80	2.12	100	90			kill in % (Musca domestica): 100%; kill in % (Lucilia cuprina): 100%; kill in % (Ctenocephalides felis): 100%
CCS(=O)(=O)c1ccc(OC(C)C)nc1-c1nc2cc(C(F)(F)F)ncc2n1C [Example 18]	3.31	3.22			90		
CCS(=O)(=O)c1ccc(NC(C)=O)nc1-c1nc2cc(C(F)(F)C(F)(F)F)ncc2n1C [Example 62]	2.54	2.47	100		90	100	efficacy in % (Tetranychus urticae): 90%
CCS(=O)(=O)c1ccc(N)nc1-c1nc2cc(C(F)(F)C(F)(F)F)ncc2n1C [Example 67]	2.14	2.14	100	90		100	efficacy in % (Tetranychus urticae): 100%
CCS(=O)(=O)c1ccc(N(C)C)nc1-c1nc2cc(C(F)(F)F)ncc2n1C [Example 64]			100	90		100	logP-acidic [1, 4]: 2.55; logP-neutral [1, 5]: 2.49
CCOc1ccc(S(=O)(=O)CC)c(-c2nc3cc(C(F)(F)F)ncc3n2C)n1 [Example 10, 2-[6-Ethoxy-3-(ethylsulphonyl)pyridin-2-yl]-3-methyl-6-(trifluoromethyl)-3H-imidazo[4,5-c]pyridine]						83	chromatographic logP [1, 6]: 2.94; chromatographic logP [1, 7]: 2.86; chromatographic logP [1, 8]: 2.86; kill in % (Musca domestica): 90%; pest or weed control at 500 g/ha (Phaedon cochleariae): 100%; pest or weed control at 500 g/ha (Myzus persicae [2]; Myzus persicae, foliar, 144 h, read-out: efficacy in %): 90%; kill in % (Lucilia cuprina): 100%
CCS(=O)(=O)c1ccc(NC(=O)COC)nc1-c1nc2cc(C(F)(F)F)ncc2n1C [Example 21]	2.22	2.17	100	90		100	
CCS(=O)(=O)c1ccc(/C=C/C2CC2)nc1-c1nc2cc(C(F)(F)F)ncc2n1C [Example 40, 2-{6-[(E)-2-Cyclopropylvinyl]-3-(ethylsulphonyl)pyridin-2-yl}-3-methyl-6-(trifluoromethyl)-3H-imidazo[4,5-c]pyridine]						100	chromatographic logP [1, 6]: 3.33; chromatographic logP [1, 7]: 3.24; chromatographic logP [1, 8]: 3.24; pest or weed control at 500 g/ha (Phaedon cochleariae): 100%; kill in % (Myzus persicae [3]): 100%
CCS(=O)(=O)c1ccc(SC(C)C)nc1-c1nc2cc(C(F)(F)F)ncc2n1C [Example 29]					90		logP-acidic [1, 4]: 3.62; logP-neutral [1, 5]: 3.53
CCS(=O)(=O)c1ccc(NC(=O)C(C)CSC)nc1-c1nc2cc(C(F)(F)F)ncc2n1C (stereo not drawn) [Example 65]	2.94	2.78	100	100	100		
CCNc1ccc(S(=O)(=O)CC)c(-c2nc3cc(C(F)(F)F)ncc3n2C)n1 [Example 56]			100	100	100		logP-acidic [1, 4]: 2.37; logP-neutral [1, 5]: 2.35; efficacy in % (Tetranychus urticae): 90%
